Where a name gives a salt, the structure may show the parent alone.
Target: T1, recombinant guanylate cyclase reporter cell line (Rattus norvegicus, UniProt P19686+P20595)
T1 construct: expressed in transfected cells; host or cells: recombinant reporter cell line
T1 sequence (P19686 1-690): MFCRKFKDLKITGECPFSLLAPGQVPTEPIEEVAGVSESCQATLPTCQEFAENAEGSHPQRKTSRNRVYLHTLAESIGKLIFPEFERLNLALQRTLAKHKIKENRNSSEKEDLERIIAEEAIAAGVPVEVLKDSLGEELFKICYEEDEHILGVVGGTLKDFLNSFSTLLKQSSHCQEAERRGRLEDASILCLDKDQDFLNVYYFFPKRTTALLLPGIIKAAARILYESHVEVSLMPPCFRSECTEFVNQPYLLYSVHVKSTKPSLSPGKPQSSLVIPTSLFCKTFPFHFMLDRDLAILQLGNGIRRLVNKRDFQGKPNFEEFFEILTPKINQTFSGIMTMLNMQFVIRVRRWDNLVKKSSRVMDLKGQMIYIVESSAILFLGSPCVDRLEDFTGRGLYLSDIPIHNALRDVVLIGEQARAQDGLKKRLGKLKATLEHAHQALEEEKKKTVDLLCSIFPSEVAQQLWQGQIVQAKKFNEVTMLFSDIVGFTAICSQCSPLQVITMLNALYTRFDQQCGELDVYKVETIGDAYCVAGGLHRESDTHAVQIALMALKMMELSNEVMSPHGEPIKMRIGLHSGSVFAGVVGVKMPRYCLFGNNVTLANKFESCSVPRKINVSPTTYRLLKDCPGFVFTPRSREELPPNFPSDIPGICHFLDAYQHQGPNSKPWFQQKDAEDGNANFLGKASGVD
T1 sequence (P20595 1-619): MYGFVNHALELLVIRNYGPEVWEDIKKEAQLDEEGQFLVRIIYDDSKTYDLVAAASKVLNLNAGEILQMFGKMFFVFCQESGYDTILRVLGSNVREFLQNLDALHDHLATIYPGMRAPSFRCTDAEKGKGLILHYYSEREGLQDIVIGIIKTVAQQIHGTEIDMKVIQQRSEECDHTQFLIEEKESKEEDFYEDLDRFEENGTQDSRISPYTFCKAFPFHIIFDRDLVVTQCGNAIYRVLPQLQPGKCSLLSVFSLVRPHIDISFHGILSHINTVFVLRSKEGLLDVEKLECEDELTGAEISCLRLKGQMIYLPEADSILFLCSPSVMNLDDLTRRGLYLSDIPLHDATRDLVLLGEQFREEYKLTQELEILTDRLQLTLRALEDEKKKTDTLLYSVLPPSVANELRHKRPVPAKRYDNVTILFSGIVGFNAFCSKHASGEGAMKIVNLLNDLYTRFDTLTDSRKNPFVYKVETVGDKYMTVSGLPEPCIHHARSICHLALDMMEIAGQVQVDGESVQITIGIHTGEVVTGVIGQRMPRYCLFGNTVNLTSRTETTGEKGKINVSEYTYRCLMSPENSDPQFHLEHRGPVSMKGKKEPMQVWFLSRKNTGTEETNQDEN
Experiment: Action on recombinant guanylate cyclase reporter cell line
Assay type: cell-based
Settings: in some cases mean values from individual determinations
How it was run: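 Reported value is the minimal effective concentration (MEC), in some cases a mean of single runs, taken from a recombinant rat guanylate cyclase reporter cell line.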

Row | Structure (SMILES) | MEC (minimal effective concentration) [µM]
1 | Cc1nc2c(OCc3c(F)cccc3F)cccn2c1C(=O)NC(CNCC(F)(F)F)c1ccc(F)c(F)c1 (single isomer, unassigned; ent-8) [Example 222, ent-8-[(2,6-Difluorobenzyl)oxy]-N-{1-(3,4-difluorophenyl)-2-[(2,2,2-trifluoroethyl)amino]ethyl}-2-methylimidazo[1,2-a]pyridine-3-carboxamide] | 0.30
2 | Cc1cc(OCc2c(F)cccc2F)c2nc(C)c(C(=O)NCC(N)c3cccc(OC(F)F)c3)n2c1 (racemic) [Example 375, rac-N-{2-amino-2-[3-(difluoromethoxy)phenyl]ethyl}-8-[(2,6-difluorobenzyl)oxy]-2,6-dimethylimidazo[1,2-a]pyridine-3-carboxamide] | 3.00
3 | Cc1nc2c(OCc3c(F)cccc3F)cc(Cl)cn2c1C(=O)NCCN1CCC(F)(F)CC1 [Example 151, 6-chloro-8-[(2,6-difluorobenzyl)oxy]-N-[2-(4,4-difluoropiperidin-1-yl)ethyl]-2-methylimidazo[1,2-a]pyridine-3-carboxamide] | 0.10
4 | Cc1nc2c(OCC3CCCCC3)cccn2c1C(=O)NC(CN)c1ccc(F)c(F)c1 (racemic) [Example 46, rac-N-[2-Amino-1-(3,4-difluorophenyl)ethyl]-8-(cyclohexylmethoxy)-2-methylimidazo[1,2-a]-pyridine-3-carboxamide] | 1.00
5 | Cc1cc(OCc2c(F)cccc2F)c2nc(C)c(C(=O)NCC(N)c3cccc(OCCO)c3)n2c1 (racemic) [Example 367, rac-N-{2-amino-2-[3-(2-hydroxyethoxy)phenyl]ethyl}-8-[(2,6-difluorobenzyl)oxy]-2,6-dimethylimidazo[1,2-a]pyridine-3-carboxamide] | 3.00
6 | Cc1cc(OCc2c(F)cccc2F)c2nc(C)c(C(=O)NC(CN)c3cccc(Br)c3)n2c1 (racemic) [Example 383, rac-N-[2-amino-1-(3-bromophenyl)ethyl]-8-[(2,6-difluorobenzyl)oxy]-2,6-dimethylimidazo[1,2-a]pyridine-3-carboxamide] | 0.30
7 | CCC(C)(N)CNC(=O)c1c(C)nc2c(OCc3c(F)cccc3F)cc(C(F)F)cn12 (single isomer, unassigned; enantiomer a) [Example 288, ent-N-(2-amino-2-methylbutyl)-8-[(2,6-difluorobenzyl)oxy]-6-(difluoromethyl)-2-methylimidazo[1,2-a]pyridine-3-carboxamide (Enantiomer A)] | 0.3
8 | CCCC(C)(N)CNC(=O)c1c(C)nc2c(OCc3c(F)cccc3F)cc(C)cn12 (racemic) [Example 232, rac-N-(2-Amino-2-methylpentyl)-8-[(2,6-difluorobenzyl)oxy]-2,6-dimethylimidazo[1,2-a]pyridine-3-carboxamide] | 0.10
9 | Cc1nc2c(OCc3c(F)cccc3F)cccn2c1C(=O)NC1CNCc2ccccc21 (single isomer, unassigned; ent-8) [Example 109, ent-8-[(2,6-difluorobenzyl)oxy]-2-methyl-N-(1,2,3,4-tetrahydroisoquinolin-4-yl)imidazo[1,2-a]pyridine-3-carboxamide] | 1.00
10 | Cc1cc(OCc2c(F)cccc2F)c2nc(C)c(C(=O)NCC(N)C#N)n2c1 (single isomer, unassigned; enantiomer b) [Example 402, ent-N-(2-amino-2-cyanoethyl)-8-[(2,6-difluorobenzyl)oxy]-2,6-dimethylimidazo[1,2-a]pyridine-3-carboxamide (Enantiomer B)] | 0.30
11 | CC(=O)Nc1cccc(C(CN)NC(=O)c2c(C)nc3c(OCc4c(F)cccc4F)cc(C)cn23)c1 (racemic) [Example 396, rac-N-[1-(3-acetamidophenyl)-2-aminoethyl]-8-[(2,6-difluorobenzyl)oxy]-2,6-dimethylimidazo[1,2-a]pyridine-3-carboxamide] | 3.00
12 | Cc1cc(OCc2c(F)cccc2F)c2nc(C)c(C(=O)NCCC(C)(C)N)n2c1 [Example 114, N-(3-amino-3-methylbutyl)-8-[(2,6-difluorobenzyl)oxy]-2,6-dimethylimidazo[1,2-a]-pyridine-3-carboxamide] | 0.30
13 | CCCC(C)(N)CNC(=O)c1c(C)nc2c(OC(C)c3c(F)cccc3F)cc(C)cn12 (centres unmarked) [Example 257, N-(2-Amino-2-methylpentyl)-8-[1-(2,6-difluorophenyl)ethoxy]-2,6-dimethylimidazo[1,2-a]-pyridine-3-carboxamide] | 1.00
14 | Cc1nc2c(OCc3c(F)cccc3F)cccn2c1C(=O)NC1CCNc2ccccc21 (single isomer, unassigned; ent-8) [Example 52, ent-8-[(2,6-Difluorobenzyl)oxy]-2-methyl-N-(1,2,3,4-tetrahydroquinolin-4-yl)imidazo[1,2-a]-pyridine-3-carboxamide] | 0.03
15 | Cc1nc2c(OCc3c(F)cccc3F)cccn2c1C(=O)NC(CN)COc1ccc(F)c(F)c1 (stereo not drawn) [Example 124, ent-N-[1-Amino-3-(3,4-difluorophenoxyl)propan-2-yl]-8-[(2,6-difluorobenzyl)oxy]-2-methyl-imidazo[1,2-a]pyridine-3-carboxamide ditrifluoroacetate] | 1.00
16 | CCCC[C@H](CN1CCCC1)NC(=O)c1c(C)nc2c(OCc3c(F)cccc3F)cccn12 [Example 66, ent-8-[(2,6-difluorobenzyl)oxy]-2-methyl-N-[(2R)-1-(pyrrolidin-1-yl)hexan-2-yl]imidazo[1,2-a]-pyridine-3-carboxamide] | 1.00
17 | Cc1nc2c(OCc3c(F)cccc3F)cccn2c1C(=O)NC1CC(C)(C)NC(C)(C)C1 [Example 82, 8-[(2,6-Difluorobenzyl)oxy]-2-methyl-N-(2,2,6,6-tetramethylpiperidin-4-yl)imidazo[1,2-a]-pyridine-3-carboxamide] | 0.20
18 | Cc1nc2c(OCC3CCCCC3)cccn2c1C(=O)NC(CN)c1ccccc1 (racemic) [Example 44, rac-N-(2-Amino-1-phenylethyl)-8-(cyclohexylmethoxy)-2-methylimidazo[1,2-a]pyridine-3-carboxamide] | 0.30
19 | Cc1cc(OCc2c(F)cccc2F)c2nc(C)c(C(=O)NC(CN)c3cc(F)c(F)c(F)c3)n2c1 (racemic) [Example 390, rac-N-[2-amino-1-(3,4,5-trifluorophenyl)ethyl]-8-[(2,6-difluorobenzyl)oxy]-2,6-dimethylimidazo[1,2-a]pyridine-3-carboxamide] | 0.30
20 | Cc1nc2c(OCc3c(F)cccc3F)cccn2c1C(=O)NC(CN)c1ccccc1 (racemic) [Example 16, rac-N-(2-Amino-1-phenylethyl)-8-[(2,6-difluorobenzyl)oxy]-2-methylimidazo[1,2-a]pyridine-3-carboxamide dihydrochloride] | 0.30
21 | COCC(CN)NC(=O)c1c(C)nc2c(OCc3c(F)cccc3F)cc(C)cn12 (single isomer, unassigned) [Example 210, ent-N-(1-amino-3-methoxypropan-2-yl)-8-[(2,6-difluorobenzyl)oxy]-2,6-dimethylimidazo[1,2-a]-pyridine-3-carboxamide trifluoroacetate] | 0.30
22 | Cc1nc2c(OCc3c(F)cccc3F)cccn2c1C(=O)NC(CN1CCOCC1)c1ccccc1 (single isomer, unassigned; ent-8) [Example 182, ent-8-[(2,6-Difluorobenzyl)oxy]-2-methyl-N-[2-(morpholin-4-yl)-1-phenylethyl]imidazo[1,2-a]-pyridine-3-carboxamide] | 3.00
23 | Cc1nc2c(OCc3c(F)cccc3F)cccn2c1C(=O)NCCN1CCN(C)CC1 [Example 133, 8-[(2,6-difluorobenzyl)oxy]-2-methyl-N-[2-(4-methylpiperazin-1-yl)ethyl]imidazo[1,2-a]-pyridine-3-carboxamide] | 3.00
